How the values were obtained:
[1] = acute oral toxicity (LD50) in mice; details: mouse, in vivo, orally administered
Description: (§1) Since these organogermanium compounds are an expensive and valuable resource, it is desirable that they can be separated and recovered from respective reaction mixtures for reutilization. However, both the saccharides and the organogermanium compounds are organic compounds of fairly high molecular weights and no method for effective separation of the two kinds of the compounds is known.

[2] = acute oral toxicity (LD50) in rats; details: rat, in vivo, orally administered
Description: as §1

**Q.** Which results are given for `O=C(O)C[CH2][Ge](=[O])[O][Ge](=[O])[CH2]CC(=O)O` [Compound 1, 2-carboxyethylgermanium sesquioxide]?
**A.** LD50 [1]: ≥ 6000 mg/kg; LD50 [2]: ≥ 10000 mg/kg

Reference: patent US5744023A, “Method for separation and recovery of organogermanium compound” (Asai Germanium Research Institute Co., Ltd., priority 1994, dated 1998)
